Test results as given in patent US20240240224A1, “FLUORESCENT D-TYPE AMINO ACID METABOLISM MARKER-BASED METHOD FOR DETECTING ANTIBACTERIAL DRUG SENSITIVITY TEST” (priority 2020, published 2024).
≈ marks a conversion by molar mass, not a printed value.

Experiments:
[1] = tested on: alveolar lavage fluid sample 0204, A. baumannii; assay: FaAST (FDAA) susceptibility test of patient alveolar lavage fluid; format: cell-based, Acinetobacter baumannii; details: unit assumed
Procedure: (§1) With reference to the flow chart of the rapid detection method of antimicrobial susceptibility test based on FDAA metabolic markers shown in FIG. 3, FDAA is used for the detection of antimicrobial susceptibility test of alveolar lavage fluid. The specific experimental steps are as follows: • 1. Mix bronchoalveolar lavage fluid (BALF, 10 ml) of patients with hospital acquired pneumonia with cation regulated broth medium (CAMHB, 10 ml) of twice the concentration to prepare the bacterial fluid to be tested. • 2. Add 45 μl antibiotic solutions of different concentrations to the 96-well plate separately (see Table 1 for antibiotic concentration gradient settings). • 3. Add 50 μl of the bacterial solution prepared in step 1 to the 96-well plate and mix well. • 4. Add 5 μl of 10 mM Cy5-DAA probe (final concentration 0.15 mM, see FIG. 1 for its structure) into each well, mix well, and then cultivate in dark for 2 hours. • 5. Add 200 μl PBS solution for dilution, and then use flow cytometry to detect the fluorescence intensity of each sample.
(§2) The results of antimicrobial susceptibility test of alveolar lavage fluid of seven patients using FDAA and BMD methods are shown in the following table. The drug-resistant bacteria are shown in bold.

[2] = tested on: alveolar lavage fluid sample 0130, A. baumannii; assay: as above; format: cell-based, Acinetobacter baumannii; details: unit assumed
Procedure: as §1, §2

[3] = tested on: alveolar lavage fluid sample 0206, A. baumannii; assay: as above; format: cell-based, Acinetobacter baumannii; details: unit assumed
Procedure: as §1, §2

[4] = tested on: alveolar lavage fluid sample 0219, A. baumannii; assay: as above; format: cell-based, Acinetobacter baumannii; details: unit assumed
Procedure: as §1, §2

[5] = tested on: E. faecium Ef26; assay: BMD susceptibility test; format: cell-based, Enterococcus faecium; details: unit assumed
[6] = tested on: E. faecalis ATCC29212; assay: FaAST (FDAA metabolic labeling method); format: cell-based, Enterococcus faecalis; details: unit assumed
Procedure: (§3) Take the colony to be tested that has been cultured overnight on the plate and fully mix it in normal saline to make a uniform bacterial solution. Dilute it into Cation-Adjusted Mueller Hinton Broth (CAMHB) culture medium to make a bacterial solution with OD600=0.05. • 2. Add 45 μl antibiotic solutions of different concentrations to 96-well plates (see Table 1 for antibiotic concentration gradient settings). • 3. Add 50 μl of the bacterial solution prepared in step 1 to the 96-well plate and mix well. • 4. Add 5 μl of 10 mM Cy5-DAA probe (final concentration 0.15 mM, see FIG. 1 for its structure) into each well, mix well, and cultivate in dark for 2 hours. • 5. Add 200 μl After PBS solution is diluted, the fluorescence intensity of each sample is detected by flow cytometry. The flow detection results are shown in FIG. 4-5, showing the curve of the change of antibiotic concentration gradient and fluorescence intensity. The MIC (minimum inhibitory concentration) can be obtained by referring to this curve.
(§4) Bacteria with antibiotic resistance are shown in bold in the following table.

[7] = tested on: Staphylococcus aureus SA31; assay: FaAST with DAA-Tetra probe; format: cell-based; details: unit assumed
Procedure: The specific experimental steps are as follows: • 1. The tested colonies cultured overnight on the plate were picked and mixed thoroughly in 2× Cation-Adjusted Mueller Hinton Broth medium (2×CAMHB) to make bacterial suspension with turbidity of OD600=0.1. • 2. […] Add 50 μL of the bacterial solution prepared in step 1 (the final concentration of the bacterial solution is OD600=0.05) to the 96-well plate, and add 5 μL of 3 mM DAA-Tetra probe (the final concentration is 0.15 mM), mix well, and incubate in the dark at 37° C. 120 rpm for 2 hours. • 4. After culture, dilute the mixed bacterial solution 10 times with PBS solution, and detect the fluorescence intensity of each sample with flow cytometry. The flow detection result is shown in FIG. 14-19, and the arrow is for the MIC value. The minimum inhibitory concentration of antibiotics was obtained according to the fluorescence signal intensity of flow detection, and the statistical results are shown in Table 6.

[8] = tested on: S. aureus ATCC29213; assay: BMD susceptibility test; format: cell-based, Staphylococcus aureus; details: unit assumed
[9] = tested on: E. faecium Ef28; assay: FaAST (FDAA metabolic labeling method); format: cell-based, Enterococcus faecium; details: unit assumed
Procedure: as §3, with “The flow detection results are shown in FIG. 4-5, showing the curve of the change of antibiotic concentration gradient and fluorescence intensity.” left out

[10] = tested on: E. faecalis ATCC29212; assay: BMD susceptibility test; format: cell-based, Enterococcus faecalis; details: unit assumed
[11] = tested on: alveolar lavage fluid sample 0226, K. pneumoniae; assay: BMD susceptibility test of patient alveolar lavage fluid; format: cell-based, Klebsiella pneumoniae; details: unit assumed
Text: as §2

[12] = tested on: alveolar lavage fluid sample 0203, K. pneumoniae; assay: as above; format: cell-based, Klebsiella pneumoniae; details: unit assumed
Text: as §2

[13] = tested on: alveolar lavage fluid sample 0226, K. pneumoniae; assay: FaAST (FDAA) susceptibility test of patient alveolar lavage fluid; format: cell-based, Klebsiella pneumoniae; details: unit assumed
Procedure: as §1, §2

[14] = tested on: alveolar lavage fluid sample 0203, K. pneumoniae; assay: as above; format: cell-based, Klebsiella pneumoniae; details: unit assumed
Procedure: as §1, §2

[15] = tested on: S. aureus Sa23; assay: FaAST (FDAA metabolic labeling method); format: cell-based, Staphylococcus aureus; details: unit assumed
Procedure: as §3, §4

[16] = tested on: S. aureus ATCC29213; assay: FaAST (FDAA metabolic labeling method); format: cell-based, Staphylococcus aureus; details: unit assumed
Procedure: as §3, §4

[17] = tested on: S. aureus Sa22; assay: FaAST (FDAA metabolic labeling method); format: cell-based, Staphylococcus aureus; details: unit assumed
Procedure: as §3, §4

[18] = tested on: Staphylococcus aureus SA22; assay: FaAST with DAA-Cy5-2 probe; format: cell-based; details: unit assumed
Procedure: as §1
The specific steps are the same as in Example 5. […] The minimum inhibitory concentration of antibiotics was obtained according to the fluorescence signal intensity of flow detection, and the statistical results are shown in Table 7.

[19] = tested on: Staphylococcus aureus SA22; assay: VITEK drug sensitivity test; format: cell-based; details: unit assumed
[20] = tested on: S. aureus Sa22; assay: BMD susceptibility test; format: cell-based, Staphylococcus aureus; details: unit assumed
[21] = tested on: S. aureus Sa23; assay: BMD susceptibility test; format: cell-based, Staphylococcus aureus; details: unit assumed
[22] = tested on: alveolar lavage fluid sample 0130, A. baumannii; assay: BMD susceptibility test of patient alveolar lavage fluid; format: cell-based, Acinetobacter baumannii; details: unit assumed
Text: as §2

[23] = tested on: alveolar lavage fluid sample 0206, A. baumannii; assay: as above; format: cell-based, Acinetobacter baumannii; details: unit assumed
Text: as §2

[24] = tested on: alveolar lavage fluid sample 0219, A. baumannii; assay: as above; format: cell-based, Acinetobacter baumannii; details: unit assumed
Text: as §2

[25] = tested on: E. faecium Ef26; assay: FaAST (FDAA metabolic labeling method); format: cell-based, Enterococcus faecium; details: unit assumed
Procedure: as §3, §4

[26] = tested on: E. faecalis ATCC29212; details: cited from earlier work
[27] = tested on: S. aureus ATCC29213; details: cited from earlier work
[28] = tested on: E. faecium Ef28; assay: BMD susceptibility test; format: cell-based, Enterococcus faecium; details: unit assumed
[29] = tested on: Staphylococcus aureus SA31; assay: VITEK drug sensitivity test; format: cell-based; details: unit assumed

Compound: CC(=O)NC[C@H]1CN(c2ccc(N3CCOCC3)c(F)c2)C(=O)O1 [Linezolid, linezolid]
- FaAST (MIC) [1]: 64 µg/mL
- FaAST (MIC) [2]: 64 µg/mL
- FaAST (MIC) [3]: 64 µg/mL
- FaAST (MIC) [4]: 16 µg/mL
- BMD (MIC) [5]: 2 µg/mL
- FaAST (MIC) [6]: 2 µg/mL
- MIC, FaAST [7]: 1 µg/mL (≈ 2.96 µM)
- BMD (MIC) [8]: 2 µg/mL
- FaAST (MIC) [9]: 2 µg/mL
- BMD (MIC) [10]: 1 µg/mL
- BMD (MIC) [11]: 64 µg/mL
- BMD (MIC) [12]: 64 µg/mL
- FaAST (MIC) [13]: 16 µg/mL
- FaAST (MIC) [14]: 16 µg/mL
- FaAST (MIC) [15]: 8 µg/mL
- FaAST (MIC) [16]: 2 µg/mL
- FaAST (MIC) [17]: 1 µg/mL
- MIC, FaAST [18]: 0.5 µg/mL (≈ 1.48 µM)
- MIC, VITEK [19]: 1 µg/mL (≈ 2.96 µM)
- BMD (MIC) [20]: 2 µg/mL
- BMD (MIC) [21]: 8 µg/mL
- BMD (MIC) [22]: 64 µg/mL
- BMD (MIC) [23]: 128 µg/mL
- BMD (MIC) [24]: 32 µg/mL
- FaAST (MIC) [25]: 2 µg/mL
- CLSI QC range [26]: 1-4
- CLSI QC range [27]: 1-4
- BMD (MIC) [28]: 2 µg/mL
- MIC, VITEK [29]: 1 µg/mL (≈ 2.96 µM)
